Experimental data reported in US7642400B2, “Protein kinase C iota” (Mayo Foundation for Medical Education and Research, priority 2004, dated 2010).
Structures can show the parent of a compound that is named as a salt. Where two headings read alike, the source gives them in different places.

Target: T1, interaction of PKCι polypeptides with PAR6 polypeptides (Homo sapiens, UniProt P41743)
T1 construct: amino acids 1-113 or a full-length PKCι polypeptide; 6xHis; made in house
T1 sequence (P41743 10-122): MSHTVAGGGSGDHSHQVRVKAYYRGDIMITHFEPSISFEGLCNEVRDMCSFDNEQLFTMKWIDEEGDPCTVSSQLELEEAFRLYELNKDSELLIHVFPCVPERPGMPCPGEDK
Experiment: Secondary screen: PYN bound to plate-immobilised biotin-tagged PAR6
Type: binding
Settings: for dose-response analysis using the secondary screening assay: increasing amounts, e.g. 0, 0.1, 1, 10, 100, and 100 μM
Experimental: Multiple test compounds that were classified as hits in the primary screen as well as additional related compounds were evaluated in a secondary screen designed as follows. Briefly, a 96-well microtiter plate coated with streptavidin (Nunc #436014) was incubated for 2-4 hours at room temperature with 100 μl of a 20-30 μg/ml solution of biotin-tagged PAR6 (whole polypeptide) in phosphate-buffered saline containing Tween-20 (PBST). Plates were washed twice with PBST, then once with incubation buffer (50 mM Tris, pH 8.0; 135 mM NaCl; 10% glycerol; 0.002% EDTA). Incubation buffer (50 μl) was added to each well. The compounds to be tested were added (10 μl) followed by PYN (50 μl) diluted in incubation buffer to an approximate concentration of 4000-5000 relative fluorescent units per 50 μl. Plates were incubated overnight at 4° C. Plates were washed twice with incubation buffer, after which 50 μl incubation buffer was added to retain moisture in the wells. The amount of PYN bound on the plates was determined by measuring yellow fluorescence (532/526) in a Typhoon imager. Fluorescence was quantitated by Softmax Pro software.
A dose-response analysis was performed using the secondary screening assay and increasing amounts (e.g., 0, 0.1, 1, 10, 100, and […]) of gossypol, hexestrol, thimerosal, ebselen, ATG, ATM, ellagic acid, cisplatin, apomorphine, or phenylmercuric acetate.

[1] = amount of PYN bound to biotin-tagged PAR6 plates

Molecule | Secondary Screen [1] | further results
C[n+]1c2cc(N)ccc2cc2ccc(N)cc21.[Cl-] [Acriflavinium hydrochloride] | No effect | –
N=C(N)NC(=O)c1nc(Cl)c(N)nc1N [Amiloride] | No effect | –
CCN(CC)Cc1cc(Nc2ccnc3cc(Cl)ccc23)ccc1O [Amodiaquine] | No effect | –
CCCc1ncc(C[n+]2ccccc2C)c(N)n1 [Amprolium] | No effect | –
CN1CCc2cccc3c2[C@H]1Cc1ccc(O)c(O)c1-3 [Apomorphine] | Confirmed | Secondary Screen (amount of PYN bound to biotin-tagged PAR6 plates, listed as apomorphine): confirmed; dose-response analysis using the secondary screening assay: dose-dependent response was detected
COc1ccc(C(Cl)=C(c2ccc(OC)cc2)c2ccc(OC)cc2)cc1 [Chlorotrianisene] | No effect (related compound | –
Oc1cc(O)c2c(c1)O[C@H](c1ccc(O)c(O)c1)[C@@H](O)C2 [Cianidanol] | No effect (related compound | –
N.N.[Cl][Pt][Cl] [Cisplatin] | Confirmed | Secondary Screen (amount of PYN bound to biotin-tagged PAR6 plates, listed as cisplatin): confirmed; dose-response analysis using the secondary screening assay: dose-dependent response was detected
Cc1cc(N)c2ccccc2[n+]1CCCCCCCCCC[n+]1c(C)cc(N)c2ccccc21 [Dequalinium chloride] | No effect | –
O=c1oc2c(O)c(O)cc3c(=O)oc4c(O)c(O)cc1c4c23 [Ellagic acid] | Confirmed | Secondary Screen (amount of PYN bound to biotin-tagged PAR6 plates, listed as ellagic acid): confirmed; dose-response analysis using the secondary screening assay: dose-dependent response was detected
CNC[C@H](O)c1ccc(O)c(O)c1 [Epinephrine bitartrate] | No effect | –
CCC(=O)O[C@H]1[C@H](O[C@@H]2[C@@H](C)[C@H](O[C@H]3C[C@@](C)(OC)[C@@H](O)[C@H](C)O3)[C@@H](C)C(=O)O[C@H](CC)[C@@](C)(O)[C@H](O)[C@@H](C)C(=O)[C@H](C)C[C@@]2(C)O)O[C@H](C)C[C@@H]1N(C)C [Erythromycin propionate lauryl sulfate] | No effect | –
C[C@]12CC[C@@H](O)C[C@H]1CC[C@@H]1[C@@H]2CC[C@]2(C)C(=O)CC[C@@H]12 [Etiocholanolone] | – | Secondary Screen: No effect
Nc1nc2ncc(CNc3ccc(C(=O)N[C@@H](CCC(=O)O)C(=O)O)cc3)nc2c(=O)[nH]1 [Folic acid] | No effect | –
O=C1OCCN1/N=C/c1ccc([N+](=O)[O-])o1 [Furazolidone] | No effect | –
O=C(O)c1cc(O)ccc1O [Gentisic acid] | No effect | –
O=C(OCC(O)CO)c1ccccc1Nc1ccnc2cc(Cl)ccc12 (stereo not shown) [Glafenine] | No effect | –
COc1ccc2c(c1OC)C(=O)O[C@@H]2[C@H]1c2cc3c(cc2CCN1C)OCO3 [Hydrastine] | No effect | –
O=C(O)c1cc2ccccc2c(Cc2c(O)c(C(=O)O)cc3ccccc23)c1O.OCCOCCN1CCN(C(c2ccccc2)c2ccc(Cl)cc2)CC1 [Hyydroxyzine pamoate] | No effect | –
CC(C)NCC(O)c1ccc(O)c(O)c1 (stereo not shown) [Isoproterenol hydrochloride] | No effect | –
CC(=O)/N=c1/sc(S(N)(=O)=O)nn1C [Methazolamide] | No effect | –
CC[C@@H](CO)NC(=O)[C@@H]1C=C2c3cccc4[nH]cc(c34)C[C@H]2N(C)C1 [Methylergonovine] | No effect | –
CC[C@@]1([C@@H]2O[C@@H]([C@H]3O[C@@](O)(CO)[C@H](C)C[C@@H]3C)C[C@@H]2C)CC[C@H]([C@]2(C)CC[C@]3(C[C@H](O)[C@@H](C)[C@@H]([C@@H](C)[C@@H](OC)[C@H](C)C(=O)O)O3)O2)O1 [Monensin, sodium] | No effect | –

Molecule | Secondary Screen [1] | further results
COc1c(C)c2c(c(O)c1C/C=C(\C)CCC(=O)O)C(=O)OC2 [Mycophenolic acid] | No effect | –
C[C@@H]1O[C@@H](O[C@H]2[C@H](Oc3cc(O)c4c(c3)O[C@H](c3ccc(O)cc3)CC4=O)O[C@H](CO)[C@@H](O)[C@@H]2O)[C@H](O)[C@H](O)[C@H]1O [Naringin] | No effect | –
Nc1ccc(/N=N/c2ccccc2)c(N)n1 [Phenazopyridine] | No effect | –
CC(=O)[O-].[Hg+][c]1ccccc1 [Phenylmercuric acetate] | – | Secondary Screen (amount of PYN bound to biotin-tagged PAR6 plates, acetate): Confirmed; Secondary Screen (amount of PYN bound to biotin-tagged PAR6 plates, listed as phenylmercuric acetate, acetate): confirmed; dose-response analysis using the secondary screening assay: dose-dependent response was detected
COc1cc(NC(C)CCCN)c2ncccc2c1 (stereo not shown) [Primaquine phosphate] | No effect | –
CC(C)[N+](C)(CCOC(=O)C1c2ccccc2Oc2ccccc21)C(C)C [Propantheline bromide] | No effect | –
CN1CCCN=C1/C=C/c1cccs1 [Pyrantel pamoate] | Confirmed | Secondary Screen (amount of PYN bound to biotin-tagged PAR6 plates, listed as pyrantel pamoate): confirmed
O=C1C=CC(=C(c2ccc(O)cc2)c2ccc(O)cc2)C=C1 [Rosolic acid] | No effect | –
CC1=C(CC(=O)O)c2cc(F)ccc2/C1=C\c1ccc([S+](C)[O-])cc1 (stereo not shown) [Sulindac] | No effect | –
C[CH2][Hg][S]c1ccccc1C(=O)[O-].[Na+] [Thimerosal] | Confirmed | Secondary Screen (amount of PYN bound to biotin-tagged PAR6 plates, listed as thimerosal): confirmed; dose-response analysis using the secondary screening assay: dose-dependent response was detected
CC1=C(/C=C/C(C)=C/C=C/C(C)=C/C(=O)O)C(C)(C)CCC1 [Tretinon] | No effect | –
CN(C)CCCN1c2ccccc2Sc2ccc(C(F)(F)F)cc21 [Triflupromazine] | No effect | –
C[C@]12CC[C@@H]3c4ccc(O)cc4CC[C@H]3[C@@H]1CC[C@@H]2O [b-estradiol] | had no effect) | –
CC1=C(C(=O)O)N2C(=O)[C@@H](NC(=O)[C@H](N)c3ccc(O)cc3)[C@H]2SC1 [cefadroxil] | had no effect) | –
[H]/N=C(\N/C(=N/[H])NCCCCCCNC(=N)NC(=N)Nc1ccc(Cl)cc1)Nc1ccc(Cl)cc1 [chlorhexidine] | No effect | –
O=C(CCCN1CC=C(n2c(=O)[nH]c3ccccc32)CC1)c1ccc(F)cc1 [droperidol] | droperidol had no effect) | –
CCn1cc(C(=O)O)c(=O)c2cc(F)c(N3CCNCC3)nc21 [enoxacin] | lomefloxacin had no effect) | –
COc1ccc([C@@H]2CC(=O)c3c(O)cc(O[C@@H]4O[C@H](CO[C@@H]5O[C@@H](C)[C@H](O)[C@@H](O)[C@H]5O)[C@@H](O)[C@H](O)[C@H]4O)cc3O2)cc1O [hespiridin] | hespiridin had no effect) | –
CC[C@H](c1ccc(O)cc1)[C@@H](CC)c1ccc(O)cc1 [hexestrol] | hexestrol was confirmed) | dose-response analysis using the secondary screening assay: dose-dependent response was detected
CCn1cc(C(=O)O)c(=O)c2cc(F)c(N3CCNC(C)C3)c(F)c21 (stereo not shown) [lomefloxacin] | lomefloxacin had no effect) | –
Antimycin A | No effect | –
Benzalkonium chloride | No effect | –
Veratrine sulfate | No effect | –
